Results reported in EP1984353B1, “AURORA KINASE MODULATORS AND METHOD OF USE” (Amgen, Inc, priority 2006, dated 2007).

Assays:
AuroraA-TPX2 = molecular target: T1, AuroraA-TPX2 (Homo sapiens, UniProt O14965); test: AuroraA-TPX2 Homogeneous Time Resolved Fluorescent (HTRF) kinase assay; assay type: biochemical; conditions: average; given as class symbols; read-out: AurA/TP X2_ IC50_IP (Avg)
T1 construct: 20 µL of AuroraA-TPX2 KD GST; GST
T1 sequence (O14965 133-383 limits assumed): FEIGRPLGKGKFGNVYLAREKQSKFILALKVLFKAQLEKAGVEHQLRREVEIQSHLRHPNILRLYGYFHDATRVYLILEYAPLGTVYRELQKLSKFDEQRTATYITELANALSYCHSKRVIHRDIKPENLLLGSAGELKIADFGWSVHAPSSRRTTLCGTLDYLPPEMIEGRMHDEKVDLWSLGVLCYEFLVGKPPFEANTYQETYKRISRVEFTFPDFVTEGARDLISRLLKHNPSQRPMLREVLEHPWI
T1 sequence (Q9ULW0 1-43 partner limits assumed): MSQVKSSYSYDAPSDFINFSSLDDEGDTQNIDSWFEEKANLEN
Method in brief: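 Aurora-A/TPX2 phosphorylates biotinylated PLK peptide (about 1 µM) with ATP for about 120 min in 60 mM HEPES pH 7.5, 10 mM MgCl2, 2 mM DTT. EDTA quench, overnight equilibration with Eu-anti-phosphoPLK antibody and SA-APC; HTRF read at 615/655 nm after 320 nm excitation.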

AuroraB = molecular target: T2, AuroraB (Homo sapiens, UniProt Q96GD4); test: AuroraB Homogeneous Time Resolved Fluorescent (HTRF) kinase assay; assay type: biochemical; conditions: average; given as class symbols; read-out: AurB_ _IC50_IP (Avg)
T2 construct: 20 µL of AuroraB FL His; His
Method in brief: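 Full-length His-tagged AuroraB (400 pM) phosphorylates 0.1 µM biotinylated Histone H3 with 23 µM ATP (Km(app)) in HEPES pH 7.5 with Mg/Mn, about 90 min. EDTA-quenched; Eu-anti-phosphoHistoneH3 and SA-APC HTRF, 655/615 nm ratio as phosphorylation.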

T2 sequence (Q96GD4 whole entry): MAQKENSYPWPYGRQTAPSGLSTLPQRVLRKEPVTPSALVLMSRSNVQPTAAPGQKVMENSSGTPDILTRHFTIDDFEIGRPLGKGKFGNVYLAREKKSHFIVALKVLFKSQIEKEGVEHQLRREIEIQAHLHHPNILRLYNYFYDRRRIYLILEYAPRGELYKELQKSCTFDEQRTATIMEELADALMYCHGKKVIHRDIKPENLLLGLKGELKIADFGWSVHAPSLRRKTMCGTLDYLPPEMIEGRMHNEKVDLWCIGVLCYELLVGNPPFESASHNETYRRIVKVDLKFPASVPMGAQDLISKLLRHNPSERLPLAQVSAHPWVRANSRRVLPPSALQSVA

Row | SMILES | IC50 (AuroraA-TPX2) [nM] | IC50 (AuroraB) [nM]
1 | Nc1nccc(-c2cccnc2Oc2ccc(Nc3nnc(-c4cccc(OC(F)(F)F)c4)c4ccccc34)cc2)n1 [compound 377, N-(4-((3-(2-amino-4-pyrimidinyl)-2-pyridinyl)oxy)phenyl)-4-(3-((trifluoromethyl)oxy)phenyl)-1-phthalazinamine] | ≤ 100 | ≤ 100
2 | Nc1nccc(-c2cccnc2Oc2ccc(Nc3nnc(-c4cccc(OC(F)(F)F)c4)c4ccccc34)cn2)n1 [compound 378, N-(6-((3-(2-amino-4-pyrimidinyl)-2-pyridinyl)oxy)-3-pyridinyl)-4-(3-((trifluoromethyl)oxy)phenyl)-1-phthalazinamine] | ≤ 100 | ≤ 100
3 | Nc1nccc(-c2cccnc2Oc2ccc(Nc3nnc(-c4cc(O)ccc4F)c4ccccc34)cn2)n1 [compound 379, 3-(4-((6-((3-(2-amino-4-pyrimidinyl)-2-pyridinyl)oxy)-3-pyridinyl)amino)-1-phthalazinyl)-4-fluorophenol] | ≤ 100 | ≤ 100
4 | COc1ccc(F)cc1-c1nnc(Nc2ccc(Oc3ncccc3-c3ccnc(N)n3)cc2)c2ccccc12 [compound 380, N-(4-((3-(2-amino-4-pyrimidinyl)-2-pyridinyl)oxy)phenyl)-4-(5-fluoro-2-(methyloxy)phenyl)-1-phthalazinamine] | ≤ 100 | ≤ 100
5 | COc1ccc(F)cc1-c1nnc(Nc2ccc(Oc3ncccc3-c3ccnc(N)n3)nc2)c2ccccc12 [compound 381, N-(6-((3-(2-amino-4-pyrimidinyl)-2-pyridinyl)oxy)-3-pyridinyl)-4-(5-fluoro-2-(methyloxy)phenyl)-1-phthalazinamine] | 100 to 500 | ≤ 100
6 | Nc1nccc(-c2cccnc2Oc2ccc(Nc3nnc(-c4ccccc4OC(F)(F)F)c4ccccc34)cc2)n1 [compound 382, N-(4-((3-(2-amino-4-pyrimidinyl)-2-pyridinyl)oxy)phenyl)-4-(2-((trifluoromethyl)oxy)phenyl)-1-phthalazinamine] | 100 to 500 | ≤ 100

Now from value to molecule:

Row | IC50 (AuroraA-TPX2) [nM] | IC50 (AuroraB) [nM] | SMILES
7 | 500 to 2500 | ≤ 100 | Nc1nccc(-c2cccnc2Oc2ccc(Nc3nnc(-c4ccccc4OC(F)(F)F)c4ccccc34)cn2)n1 [compound 383, N-(6-((3-(2-amino-4-pyrimidinyl)-2-pyridinyl)oxy)-3-pyridinyl)-4-(2-((trifluoromethyl)oxy)phenyl)-1-phthalazinamine]
8 | ≤ 100 | ≤ 100 | Nc1nccc(-c2cccnc2Oc2ccc(Nc3nnc(-c4ccccc4CO)c4ccccc34)cc2)n1 [compound 384, (2-(4-((4-((3-(2-amino-4-pyrimidinyl)-2-pyridinyl)oxy)phenyl)amino)-1-phthalazinyl)phenyl)methanol]
9 | 100 to 500 | ≤ 100 | Nc1nccc(-c2cccnc2Oc2ccc(Nc3nnc(-c4ccccc4CO)c4ccccc34)cn2)n1 [compound 385, (2-(4-((6-((3-(2-amino-4-pyrimidinyl)-2-pyridinyl)oxy)-3-pyridinyl)amino)-1-phthalazinyl)phenyl)methanol]
10 | ≤ 100 | ≤ 100 | Nc1nccc(-c2cccnc2Oc2ccc(Nc3nnc(-c4cc(F)ccc4O)c4ccccc34)cc2)n1 [compound 386, 2-(4-((4-((3-(2-amino-4-pyrimidinyl)-2-pyridinyl)oxy)phenyl)amino)-1-phthalazinyl)-4-fluorophenol]
11 | ≤ 100 | ≤ 100 | Nc1nccc(-c2cccnc2Oc2ccc(Nc3nnc(-c4cc(F)ccc4O)c4ccccc34)cn2)n1 [compound 387, 2-(4-((6-((3-(2-amino-4-pyrimidinyl)-2-pyridinyl)oxy)-3-pyridinyl)amino)-1-phthalazinyl)-4-fluorophenol]
12 | 100 to 500 | ≤ 100 | CN(C)CCCOc1cccc(-c2nnc(Nc3ccc(Oc4ncccc4-c4ccnc(N)n4)nc3)c3ccccc23)c1 [compound 388, N-(6-((3-(2-amino-4-pyrimidinyl)-2-pyridinyl)oxy)-3-pyridinyl)4-(3-((3-(dimethylamino)propyl)oxy)phenyl)-1-phthalazinamine]
